Laboratory results reported in patent publication US20250346569A1, “NEW DERIVATIVES FOR TREATING TRPM3 MEDIATED DISORDERS” (Katholieke Universiteit Leuven, priority 2022, published 2025).

biological target: T1, mouse TRPM3α2 (mTRPM3) ion channel (Mus musculus, UniProt J9SQF3); test: Monitoring the TRPM3 ion channel driven Ca2+ uptake (Fluo-4 AM assay); assay type: cell-based; conditions: TRPM3 overexpressing flip-in HEK293 cells, channel stimulated with Pregnenolone sulfate (PS) 50 μM
T1 construct: expressed in transfected cells; host or cells: flip-in HEK293
Method: Monitoring the TRPM3 ion channel driven Ca^2+ uptake.
In order to monitor the inhibition of the mouse TRPM3α2 (mTRPM3) ion channel by the compounds of the invention, a cellular system making use of an mTRPM3alpha2 or hTRPM3 overexpressing cell line (flip-in HEK293) was used. The TRPM3 channel was stimulated/opened with Pregnenolone sulfate (PS) (50 μM) which results in Ca^2+ influx.
For mTRPM3, the intracellular Ca^2+ was measured with a Calcium responsive dye, Fluor-4 AM ester (Invitrogen). Cells were cultured until a confluence of 80-90%, washed with Versene (Invitrogen) and detached from the surface by a short incubation with 0.05% Trypsin (Invitrogen). The trypsination process was stopped by the addition of complete cell culture medium (DMEM, glutamax,10% FCS,NEAA,Pen-Strep). Cells were collected and resuspended in Krebs buffer without Calcium at RT.
Prior the cell seeding (±2000 cells/well into a black, 384 well plate (Greiner)) the diluted compound was added in the assay plate, together with the PS dissolved in Krebs buffer containing Calcium. […] Directly after cell addition the plates were read on an Envision fluorescence reader (Perkin Elmer) by an Excitation of 485 nm and emission at 535 nm.
Channel inhibition was calculated compared to a non-PS stimulated control versus a condition stimulated with PS (50 μM) with vehicle. The ability of the compounds of the invention to inhibit this activity was determined as: Percentage inhibition=[1−((RFU determined for sample with test compound present−RFU determined for sample with positive control inhibitor) divided by (RFU determined in the presence of vehicle−RFU determined for sample with positive control inhibitor))]*100.
The activities of the Example compounds tested are depicted in the table below. The activity ranges A, B and C refer to IC50 values in the Fluo-4 AM assay as follows: “A”: IC50<1 μM; “B”: 1 μM≤IC50≤20 μM and “C”: IC50>20 μM

T1 sequence (J9SQF3 1-1709 isoform J9SQF3-12): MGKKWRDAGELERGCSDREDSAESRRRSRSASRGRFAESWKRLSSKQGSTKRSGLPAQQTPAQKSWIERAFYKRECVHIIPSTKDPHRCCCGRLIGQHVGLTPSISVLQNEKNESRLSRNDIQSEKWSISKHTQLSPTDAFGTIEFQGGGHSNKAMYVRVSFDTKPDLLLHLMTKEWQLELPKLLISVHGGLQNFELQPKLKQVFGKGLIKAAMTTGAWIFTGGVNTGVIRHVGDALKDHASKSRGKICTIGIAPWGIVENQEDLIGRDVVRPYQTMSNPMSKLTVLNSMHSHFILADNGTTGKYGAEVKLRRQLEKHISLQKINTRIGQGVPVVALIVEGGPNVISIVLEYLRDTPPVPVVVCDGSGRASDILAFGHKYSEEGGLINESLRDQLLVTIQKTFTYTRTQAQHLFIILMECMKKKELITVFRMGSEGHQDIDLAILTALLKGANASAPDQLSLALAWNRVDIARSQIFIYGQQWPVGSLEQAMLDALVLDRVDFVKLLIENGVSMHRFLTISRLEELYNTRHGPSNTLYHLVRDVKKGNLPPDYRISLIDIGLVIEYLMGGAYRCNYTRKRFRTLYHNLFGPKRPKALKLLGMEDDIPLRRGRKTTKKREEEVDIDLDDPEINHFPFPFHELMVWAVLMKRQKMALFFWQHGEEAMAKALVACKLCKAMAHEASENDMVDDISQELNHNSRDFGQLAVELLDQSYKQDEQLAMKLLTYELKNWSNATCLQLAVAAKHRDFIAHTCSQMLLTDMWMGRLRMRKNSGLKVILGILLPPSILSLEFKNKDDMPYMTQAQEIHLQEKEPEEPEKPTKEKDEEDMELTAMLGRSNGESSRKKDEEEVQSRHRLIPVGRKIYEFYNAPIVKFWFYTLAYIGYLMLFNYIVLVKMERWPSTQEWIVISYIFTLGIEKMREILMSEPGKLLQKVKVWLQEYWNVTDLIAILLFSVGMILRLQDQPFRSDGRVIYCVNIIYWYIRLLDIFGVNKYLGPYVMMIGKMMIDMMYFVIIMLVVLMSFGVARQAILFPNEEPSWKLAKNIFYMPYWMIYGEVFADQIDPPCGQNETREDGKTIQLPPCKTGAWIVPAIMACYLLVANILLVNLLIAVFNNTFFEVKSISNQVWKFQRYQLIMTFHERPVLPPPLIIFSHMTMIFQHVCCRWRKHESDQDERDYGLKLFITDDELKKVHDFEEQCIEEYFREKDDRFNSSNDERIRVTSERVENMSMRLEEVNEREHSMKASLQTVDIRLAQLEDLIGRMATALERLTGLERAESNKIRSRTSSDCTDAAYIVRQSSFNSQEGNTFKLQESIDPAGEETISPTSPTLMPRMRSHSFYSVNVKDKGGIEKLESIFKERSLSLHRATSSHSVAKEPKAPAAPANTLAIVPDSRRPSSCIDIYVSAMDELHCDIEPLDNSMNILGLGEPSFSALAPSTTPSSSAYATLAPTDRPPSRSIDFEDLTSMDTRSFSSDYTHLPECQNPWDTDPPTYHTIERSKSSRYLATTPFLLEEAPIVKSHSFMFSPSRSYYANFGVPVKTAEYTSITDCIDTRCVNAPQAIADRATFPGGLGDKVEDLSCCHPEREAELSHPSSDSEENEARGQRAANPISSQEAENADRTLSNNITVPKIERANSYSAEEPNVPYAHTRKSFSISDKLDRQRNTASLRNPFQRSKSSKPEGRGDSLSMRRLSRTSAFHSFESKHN

Compound	IC50 [nM]
Cc1ncsc1COc1ccc2sc(C)c(C(=O)NC(C)(C)C(N)=O)c2c1 [Cpd 031, 2-methyl-2-({2-methyl-5-[(4-methyl-1,3-thiazol-5-yl)methoxy]-1-benzothiophen-3-yl}formamido)propanamide]	< 1000
Cc1ncsc1COc1ccc2sc(C)c(C(=O)NC(C)(CO)CO)c2c1 [Cpd 032, N-(1,3-dihydroxy-2-methylpropan-2-yl)-2-methyl-5-[(4-methyl-1,3-thiazol-5-yl)methoxy]-1-benzothiophene-3-carboxamide]	< 1000
Cc1ncsc1COc1ccc2sc(C)c(C(=O)NC3(C(N)=O)CCOCC3)c2c1 [Cpd 033, 4-{2-methyl-5-[(4-methyl-1,3-thiazol-5-yl)methoxy]-1-benzothiophene-3-amido}oxane-4-carboxamide]	< 1000
Cc1ncsc1COc1ccc2sc(C)c(C(=O)NC3(CO)CC3)c2c1 [Cpd 034, N-[1-(hydroxymethyl)cyclopropyl]-2-methyl-5-[(4-methyl-1,3-thiazol-5-yl)methoxy]-1-benzothiophene-3-carboxamide]	< 1000
Cc1ncsc1COc1ccc2sc(C)c(C(=O)NC3(CO)CCC3)c2c1 [Cpd 035, N-[1-(hydroxymethyl)cyclobutyl]-2-methyl-5-[(4-methyl-1,3-thiazol-5-yl)methoxy]-1-benzothiophene-3-carboxamide]	< 1000
Cc1ncsc1COc1ccc2sc(C)c(C(=O)NC3(CO)CCOCC3)c2c1 [Cpd 036, N-[4-(hydroxymethyl)oxan-4-yl]-2-methyl-5-[(4-methyl-1,3-thiazol-5-yl)methoxy]-1-benzothiophene-3-carboxamide]	< 1000
Cc1ncsc1COc1ccc2sc(C)c(C(=O)NC3(CO)COC3)c2c1 [Cpd 037, N-[3-(hydroxymethyl)oxetan-3-yl]-2-methyl-5-[(4-methyl-1,3-thiazol-5-yl)methoxy]-1-benzothiophene-3-carboxamide]	< 1000
Cc1ncsc1COc1ccc2sc(C)c(C(=O)NC3(C(N)=O)COC3)c2c1 [Cpd 038, 3-{2-methyl-5-[(4-methyl-1,3-thiazol-5-yl)methoxy]-1-benzothiophene-3-amido}oxetane-3-carboxamide]	< 1000
Cc1ncsc1COc1ccc2sc(C)c(C(=O)NC3CC(F)(F)C3)c2c1 [Cpd 039, N-(3,3-difluorocyclobutyl)-2-methyl-5-[(4-methyl-1,3-thiazol-5-yl)methoxy]-1-benzothiophene-3-carboxamide]	< 1000
Cc1ncsc1COc1ccc2sc(C)c(C(=O)Nc3ccn(C)n3)c2c1 [Cpd 040, 2-methyl-5-[(4-methyl-1,3-thiazol-5-yl)methoxy]-N-(1-methyl-1H-pyrazol-3-yl)-1-benzothiophene-3-carboxamide]	< 1000
Cc1ncsc1COc1ccc2sc(C)c(C(=O)NC3CCNC3=O)c2c1 (stereo not drawn) [Cpd 041, 2-methyl-5-[(4-methyl-1,3-thiazol-5-yl)methoxy]-N-(2-oxopyrrolidin-3-yl)-1-benzothiophene-3-carboxamide]	< 1000
Cc1ncsc1COc1ccc2sc(C)c(C(=O)NC3CCOC3)c2c1 (stereo not drawn) [Cpd 043, 2-methyl-5-[(4-methyl-1,3-thiazol-5-yl)methoxy]-N-(oxolan-3-yl)-1-benzothiophene-3-carboxamide]	< 1000
Cc1ncsc1COc1ccc2sc(C)c(C(=O)NCC(C)(C)N3CCOCC3)c2c1 [Cpd 044, 2-methyl-5-[(4-methyl-1,3-thiazol-5-yl)methoxy]-N-[2-methyl-2-(morpholin-4-yl)propyl]-1-benzothiophene-3-carboxamide]	< 1000
Cc1ncsc1COc1ccc2sc(C)c(C(=O)NCC(C)(C)O)c2c1 [Cpd 045, N-(2-hydroxy-2-methylpropyl)-2-methyl-5-[(4-methyl-1,3-thiazol-5-yl)methoxy]-1-benzothiophene-3-carboxamide]	< 1000
Cc1ncsc1COc1ccc2sc(C)c(C(=O)NCC3CCC(=O)N3)c2c1 (stereo not drawn) [Cpd 046, 2-methyl-5-[(4-methyl-1,3-thiazol-5-yl)methoxy]-N-[(5-oxopyrrolidin-2-yl)methyl]-1-benzothiophene-3-carboxamide]	< 1000
Cc1ncsc1COc1ccc2sc(C)c(C(=O)NCc3cccc(O)n3)c2c1 [Cpd 047, N-[(6-hydroxypyridin-2-yl)methyl]-2-methyl-5-[(4-methyl-1,3-thiazol-5-yl)methoxy]-1-benzothiophene-3-carboxamide]	< 1000
Cc1ncsc1COc1ccc2sc(C)c(C(=O)NCCN3CCOC3=O)c2c1 [Cpd 048, 2-methyl-5-[(4-methyl-1,3-thiazol-5-yl)methoxy]-N-[2-(2-oxo-1,3-oxazolidin-3-yl)ethyl]-1-benzothiophene-3-carboxamide]	1000 to 20000

Compound	IC50 [nM]
Cc1ncsc1COc1ccc2sc(C)c(C(=O)O)c2c1 [Cpd 049, 2-methyl-5-[(4-methyl-1,3-thiazol-5-yl)methoxy]-1-benzothiophene-3-carboxylic acid]	1000 to 20000
Cc1sc2ccc(OCC3CC3)cc2c1C(=O)N[C@@H](CO)C(N)=O [Cpd 050, (2S)-2-{[5-(cyclopropylmethoxy)-2-methyl-1-benzothiophen-3-yl]formamido}-3-hydroxypropanamide]	< 1000
Cc1sc2ccc(OCc3ccccc3F)cc2c1C(=O)N[C@@H](CO)C(N)=O [Cpd 051, (2S)-2-({5-[(2-fluorophenyl)methoxy]-2-methyl-1-benzothiophen-3-yl}formamido)-3-hydroxypropanamide]	< 1000
Cc1sc2ccc(OCc3ccccn3)cc2c1C(=O)N[C@@H](CO)C(N)=O [Cpd 052, (2S)-3-hydroxy-2-({2-methyl-5-[(pyridin-2-yl)methoxy]-1-benzothiophen-3-yl}formamido)propanamide]	< 1000
Cc1sc2ccc(OCc3cccnc3C(F)(F)F)cc2c1C(=O)N[C@@H](CO)C(N)=O [Cpd 053, (2S)-3-hydroxy-2-[(2-methyl-5-{[2-(trifluoromethyl)pyridin-3-yl]methoxy}-1-benzothiophen-3-yl)formamido]propanamide]	< 1000
Cc1sc2ccc(OCc3cccnc3O)cc2c1C(=O)N[C@@H](CO)C(N)=O [Cpd 054, (2S)-3-hydroxy-2-({5-[(2-hydroxypyridin-3-yl)methoxy]-2-methyl-1-benzothiophen-3-yl}formamido)propanamide]	1000 to 20000
Cc1sc2ccc(OCc3ccccc3F)cc2c1C(=O)N[C@@H]1CCN(CCO)C1=O [Cpd 055, 5-[(2-fluorophenyl)methoxy]-N-[(3R)-1-(2-hydroxyethyl)-2-oxopyrrolidin-3-yl]-2-methyl-1-benzothiophene-3-carboxamide]	1000 to 20000
Cc1sc2ccc(OCc3ccccc3F)cc2c1C(=O)N[C@H](CO)C(N)=O [Cpd 056, (2R)-2-({5-[(2-fluorophenyl)methoxy]-2-methyl-1-benzothiophen-3-yl}formamido)-3-hydroxypropanamide]	< 1000
Cc1sc2ccc(OCc3ccccn3)cc2c1C(=O)N[C@H](CO)C(N)=O [Cpd 057, (2R)-3-hydroxy-2-({2-methyl-5-[(pyridin-2-yl)methoxy]-1-benzothiophen-3-yl}formamido)propanamide]	< 1000
Cc1sc2ccc(OCc3cccnc3C(F)(F)F)cc2c1C(=O)N[C@H](CO)C(N)=O [Cpd 058, (2R)-3-hydroxy-2-[(2-methyl-5-{[2-(trifluoromethyl)pyridin-3-yl]methoxy}-1-benzothiophen-3-yl)formamido]propanamide]	< 1000
Cc1sc2ccc(OCc3ccccc3F)cc2c1C(=O)N[C@H]1CCN(CCO)C1=O [Cpd 059, 5-[(2-fluorophenyl)methoxy]-N-[(3S)-1-(2-hydroxyethyl)-2-oxopyrrolidin-3-yl]-2-methyl-1-benzothiophene-3-carboxamide]	< 1000
Cc1sc2ccc(OCc3ccccc3)cc2c1C(=O)N[C@H]1CCNC1=O [Cpd 060, 5-(benzyloxy)-2-methyl-N-[(3S)-2-oxopyrrolidin-3-yl]-1-benzothiophene-3-carboxamide]	< 1000
Cc1sc2ccc(OCC3CC3)cc2c1C(=O)NC(C)(C)C(N)=O [Cpd 061, 2-{[5-(cyclopropylmethoxy)-2-methyl-1-benzothiophen-3-yl]formamido}-2-methylpropanamide]	< 1000
Cc1sc2ccc(OCc3ccccc3)cc2c1C(=O)NC(C)(C)C(N)=O [Cpd 062, 2-{[5-(benzyloxy)-2-methyl-1-benzothiophen-3-yl]formamido}-2-methylpropanamide]	< 1000
Cc1sc2ccc(OCc3ccccc3F)cc2c1C(=O)NC(C)(C)C(N)=O [Cpd 063, 2-({5-[(2-fluorophenyl)methoxy]-2-methyl-1-benzothiophen-3-yl}formamido)-2-methylpropanamide]	< 1000
Cc1sc2ccc(OCc3ccccn3)cc2c1C(=O)NC(C)(C)C(N)=O [Cpd 064, 2-methyl-2-({2-methyl-5-[(pyridin-2-yl)methoxy]-1-benzothiophen-3-yl}formamido)propanamide]	< 1000
